Test results taken from US10214509B2, “Amino-substituted heterocyclic derivatives as sodium channel inhibitors” (ALMIRALL, S.A., priority 2015, dated 2019).

What was measured:
[1] = biological target: voltage-gated sodium channel Nav1.5 (Homo sapiens (Human), UniProt Q14524); experiment: Nav1.5 screening assay, IonWorks Quattro automated patch-clamp electrophysiology; type: cell-based; conditions: stable cell line expressing Nav1.5; holding potential −120 mV; compound incubation 5 minutes; IC50 fitted to percent block; read-out: Nav 1.5 IC50
Chain of voltage-gated sodium channel Nav1.5 (Q14524 whole entry): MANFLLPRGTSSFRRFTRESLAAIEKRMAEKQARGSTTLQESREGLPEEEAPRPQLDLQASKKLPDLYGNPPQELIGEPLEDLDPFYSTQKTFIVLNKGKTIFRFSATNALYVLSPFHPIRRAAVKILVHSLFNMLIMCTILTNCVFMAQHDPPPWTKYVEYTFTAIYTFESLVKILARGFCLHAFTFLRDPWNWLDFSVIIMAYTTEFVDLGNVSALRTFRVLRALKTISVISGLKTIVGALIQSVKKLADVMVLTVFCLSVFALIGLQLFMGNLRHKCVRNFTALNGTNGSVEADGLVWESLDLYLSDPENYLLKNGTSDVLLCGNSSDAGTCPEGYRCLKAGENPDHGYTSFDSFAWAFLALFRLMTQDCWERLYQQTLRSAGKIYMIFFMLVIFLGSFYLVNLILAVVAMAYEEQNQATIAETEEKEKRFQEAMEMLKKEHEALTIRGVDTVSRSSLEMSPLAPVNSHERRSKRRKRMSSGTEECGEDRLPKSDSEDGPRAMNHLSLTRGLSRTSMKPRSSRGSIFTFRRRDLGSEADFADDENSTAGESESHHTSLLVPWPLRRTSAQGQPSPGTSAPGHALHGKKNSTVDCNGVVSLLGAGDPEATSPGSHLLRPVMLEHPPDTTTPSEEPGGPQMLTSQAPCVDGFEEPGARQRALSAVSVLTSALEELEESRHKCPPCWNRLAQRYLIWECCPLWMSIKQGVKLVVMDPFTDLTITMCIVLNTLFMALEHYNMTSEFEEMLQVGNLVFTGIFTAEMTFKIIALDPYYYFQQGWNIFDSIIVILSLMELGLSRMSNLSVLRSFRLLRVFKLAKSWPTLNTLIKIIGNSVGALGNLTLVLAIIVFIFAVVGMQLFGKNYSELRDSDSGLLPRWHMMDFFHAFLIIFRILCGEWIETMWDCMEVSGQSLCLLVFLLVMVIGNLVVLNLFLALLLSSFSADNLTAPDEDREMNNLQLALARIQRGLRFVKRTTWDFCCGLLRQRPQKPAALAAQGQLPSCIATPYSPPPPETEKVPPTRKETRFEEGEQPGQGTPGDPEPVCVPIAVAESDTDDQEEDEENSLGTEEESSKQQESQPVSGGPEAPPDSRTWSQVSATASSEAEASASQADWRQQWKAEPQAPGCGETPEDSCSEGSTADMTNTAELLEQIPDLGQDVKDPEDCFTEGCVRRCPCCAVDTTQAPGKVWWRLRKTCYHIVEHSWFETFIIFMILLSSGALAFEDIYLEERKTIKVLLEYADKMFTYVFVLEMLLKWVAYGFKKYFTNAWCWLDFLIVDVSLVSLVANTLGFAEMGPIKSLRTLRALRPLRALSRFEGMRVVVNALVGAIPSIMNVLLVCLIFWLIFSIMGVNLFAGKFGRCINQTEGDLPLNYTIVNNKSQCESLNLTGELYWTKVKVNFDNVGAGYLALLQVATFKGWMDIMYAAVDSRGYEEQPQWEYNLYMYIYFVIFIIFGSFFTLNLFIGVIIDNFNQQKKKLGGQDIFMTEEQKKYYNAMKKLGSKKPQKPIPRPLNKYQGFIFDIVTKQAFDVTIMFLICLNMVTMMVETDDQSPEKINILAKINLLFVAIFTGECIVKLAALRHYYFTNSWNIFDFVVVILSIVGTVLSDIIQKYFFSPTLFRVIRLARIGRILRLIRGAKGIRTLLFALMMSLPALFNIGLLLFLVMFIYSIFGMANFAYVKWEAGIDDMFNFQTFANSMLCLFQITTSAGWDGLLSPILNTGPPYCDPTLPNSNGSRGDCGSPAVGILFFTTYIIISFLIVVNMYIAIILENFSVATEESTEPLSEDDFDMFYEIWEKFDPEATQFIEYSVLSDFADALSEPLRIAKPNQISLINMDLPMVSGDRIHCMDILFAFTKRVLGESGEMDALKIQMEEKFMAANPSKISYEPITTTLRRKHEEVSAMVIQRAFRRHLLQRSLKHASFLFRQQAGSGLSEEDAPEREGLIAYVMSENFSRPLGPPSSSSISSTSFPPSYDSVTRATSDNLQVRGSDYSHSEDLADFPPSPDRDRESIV
Protocol: (§1) Assay Procedure Nav1.7 and Nav1.5 Screening Assay
(§2) Stable cell lines expressing the full-length protein of the voltage-gated sodium channels Nav1.7 or Nav1.5, with or without one beta-1, beta-2, beta-3, or beta-4 subunit, are created by transfected CHO cells or HEK293 cells, or any other suitable cell line, with a vector construct containing the complete open reading frame under a suitable promoter, as well known in the art.
(§3) Electrophysiological studies are performed with an IonWorks Quattro (Molecular Devices Corp.) automated patch-clamp electrophysiology platform as described by (Schroeder K et al. Journal of Biomolecular Screening 2003, 8 (1), 50-64). Buffers for the experiments have the following composition (mM): Internal solution; K-gluconate 100, KCl 40, MgCl2 3.2, HEPES 5, EGTA 3, pH 7.3. To this amphotericin B is added to final concentration of 0.1 mg/ml to generate access solution. External solution; Dulbecco's Phosphate buffered saline (D-PBS) NaCl 137.93, KCl 2.67, KH2PO4 1.47, Na2HPO4 8.06, CaCl2 0.90, MgCl2 0.49. Prior to the experiment the cells expressing the voltage-gated ion channel of interest are detached from the tissue culture flasks, centrifuged and resuspended in D-PBS. Compounds are prepared and serially diluted in DMSO and finally diluted 1:100 in D-PBS. Cells are exposed to compounds through the pipetting system integrated into the platform and the voltage-gated ion channel of interest is activated with specific voltage stimulation protocols. The following voltage stimulation protocol is used for testing compounds against the voltage-gated sodium channel Nav1.7; from a holding potential of −100 mV a train of eight 60 ms depolarising steps to −20 mV at a frequency of 14 Hz are employed followed by a further step to −20 mV for 2000 ms. After which the voltage is returned to −100 mV for 10 ms before another voltage step to −20 mV for 60 ms is applied. The following voltage stimulation protocol is used for testing compounds against the voltage-gated sodium channel Nav1.5; from a holding potential of −120 mV a train of twenty-six 120 ms depolarising steps to −20 mV at a frequency of 5 Hz are employed. Recordings are made before and after compound addition with the compound incubation time being 5 minutes.
(§4) Percent block was calculated for each concentration in duplicate for peak 1 and peak 10 and peak 1 and 25 for Nav 1.7 and Nav 1.5 respectively in order to assess compound activity at close and inactivated states and IC50 curves were fitted to percent block as a function of concentration.

[2] = biological target: voltage-gated sodium channel Nav1.7 (Homo sapiens (Human), UniProt Q15858); experiment: Nav1.7 screening assay, IonWorks Quattro automated patch-clamp electrophysiology; type: cell-based; conditions: stable cell line expressing Nav1.7; holding potential −100 mV; compound incubation 5 minutes; IC50 fitted to percent block; read-out: Nav 1.7 IC50
Chain of voltage-gated sodium channel Nav1.7 (Q15858 whole entry): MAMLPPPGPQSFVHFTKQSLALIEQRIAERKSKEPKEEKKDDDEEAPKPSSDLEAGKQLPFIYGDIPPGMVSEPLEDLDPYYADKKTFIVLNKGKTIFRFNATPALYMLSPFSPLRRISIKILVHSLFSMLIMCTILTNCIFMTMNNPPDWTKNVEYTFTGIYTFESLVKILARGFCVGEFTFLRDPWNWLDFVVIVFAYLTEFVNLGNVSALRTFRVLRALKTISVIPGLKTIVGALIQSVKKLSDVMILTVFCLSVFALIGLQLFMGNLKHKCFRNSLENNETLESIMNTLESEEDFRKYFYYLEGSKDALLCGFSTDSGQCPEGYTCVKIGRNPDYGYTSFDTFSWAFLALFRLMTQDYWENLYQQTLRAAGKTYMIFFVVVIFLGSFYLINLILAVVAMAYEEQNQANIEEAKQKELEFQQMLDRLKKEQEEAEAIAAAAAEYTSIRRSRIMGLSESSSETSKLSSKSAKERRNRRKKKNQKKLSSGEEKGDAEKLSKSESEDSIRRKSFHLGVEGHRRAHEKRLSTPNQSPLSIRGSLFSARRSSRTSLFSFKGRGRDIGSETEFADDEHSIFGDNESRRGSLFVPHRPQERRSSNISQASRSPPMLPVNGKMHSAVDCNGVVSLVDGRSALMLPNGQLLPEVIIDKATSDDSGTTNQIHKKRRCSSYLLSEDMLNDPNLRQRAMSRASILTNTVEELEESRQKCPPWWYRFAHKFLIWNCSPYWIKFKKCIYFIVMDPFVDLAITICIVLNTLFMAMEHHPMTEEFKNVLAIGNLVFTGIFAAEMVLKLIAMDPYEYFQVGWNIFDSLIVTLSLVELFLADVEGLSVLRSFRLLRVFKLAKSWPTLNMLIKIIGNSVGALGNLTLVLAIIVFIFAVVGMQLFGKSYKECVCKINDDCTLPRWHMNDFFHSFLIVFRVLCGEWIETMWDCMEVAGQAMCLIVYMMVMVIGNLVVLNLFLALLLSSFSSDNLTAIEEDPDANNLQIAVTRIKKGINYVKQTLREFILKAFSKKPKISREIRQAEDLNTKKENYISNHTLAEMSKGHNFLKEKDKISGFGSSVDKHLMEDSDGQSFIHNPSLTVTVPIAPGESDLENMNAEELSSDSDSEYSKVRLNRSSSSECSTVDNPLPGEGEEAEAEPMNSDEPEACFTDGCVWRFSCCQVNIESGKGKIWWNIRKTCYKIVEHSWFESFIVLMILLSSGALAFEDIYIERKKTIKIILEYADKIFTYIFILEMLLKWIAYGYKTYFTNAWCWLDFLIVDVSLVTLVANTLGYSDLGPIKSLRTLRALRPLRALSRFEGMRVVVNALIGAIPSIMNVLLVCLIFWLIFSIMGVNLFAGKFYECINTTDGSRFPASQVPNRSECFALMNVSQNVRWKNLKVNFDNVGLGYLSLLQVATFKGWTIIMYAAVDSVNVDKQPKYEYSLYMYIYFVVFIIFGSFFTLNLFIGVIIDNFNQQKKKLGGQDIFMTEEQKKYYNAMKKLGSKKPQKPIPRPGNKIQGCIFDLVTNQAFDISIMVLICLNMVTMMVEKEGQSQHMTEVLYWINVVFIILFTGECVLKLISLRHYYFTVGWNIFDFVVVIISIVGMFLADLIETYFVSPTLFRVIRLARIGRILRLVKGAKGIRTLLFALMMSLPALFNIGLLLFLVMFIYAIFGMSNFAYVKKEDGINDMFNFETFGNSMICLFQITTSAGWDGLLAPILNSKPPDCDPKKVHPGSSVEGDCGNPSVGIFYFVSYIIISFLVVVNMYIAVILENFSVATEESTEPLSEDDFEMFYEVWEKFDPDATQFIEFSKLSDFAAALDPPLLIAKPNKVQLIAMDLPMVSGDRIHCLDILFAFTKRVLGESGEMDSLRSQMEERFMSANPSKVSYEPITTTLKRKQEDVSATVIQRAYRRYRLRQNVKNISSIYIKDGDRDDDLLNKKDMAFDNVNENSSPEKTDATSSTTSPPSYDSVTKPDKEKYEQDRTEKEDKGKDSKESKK
Protocol: as §1, §2, §3, §4

Molecule | IC50 [1] [nM] | IC50 [2] [nM]
5-Amino-1-(2-(2-methoxyethoxy)phenyl)-3-methyl-N-(2-methyl-4-(trifluoromethyl)phenyl)-1H-pyrazole-4-carboxamide [Example 115] | > 33000 | 700
COc1ccccc1-n1ncc(C(=O)Nc2ccc(Cl)cc2)c1N [Example 1, 5-Amino-N-(4-chlorophenyl)-1-(2-methoxyphenyl)-1H-pyrazole-4-carboxamide] | 21000 | 700
Cc1ccccc1-n1ncc(C(=O)Nc2ccc(Cl)cc2F)c1N [Example 7, 5-Amino-N-(4-chloro-2-fluoro-phenyl)-1-(o-tolyl)-1H-pyrazole-4-carboxamide] | > 33000 | 300
COCCOc1ccccc1-n1nc(C)c(C(=O)Nc2ccc(C(F)(F)F)cc2F)c1N [Example 38, 5-Amino-N-(2-fluoro-4-(trifluoromethyl)phenyl)-1-(2-(2-methoxyethoxy)phenyl)-3-methyl-1H-pyrazole-4-carboxamide] | > 33000 | 700
Cc1c(F)cccc1-n1ncc(C(=O)Nc2ccc(OC(F)(F)F)cn2)c1N [Example 55, 5-Amino-1-(3-fluoro-2-methylphenyl)-N-(5-(trifluoromethoxy)pyridin-2-yl)-1H-pyrazole-4-carboxamide] | > 33000 | 500
Cc1c(F)cccc1-n1ncc(C(=O)N2CCc3cc(Cl)ccc32)c1N [Example 57, (5-Amino-1-(3-fluoro-2-methylphenyl)-1H-pyrazol-4-yl)(5-chloroindolin-1-yl)methanone] | > 33000 | 800
COc1ccccc1-n1ncc(C(=O)N2CCc3cc(Cl)ccc32)c1N [Example 61, (5-Amino-1-(2-methoxyphenyl)-1H-pyrazol-4-yl)(5-chloroindolin-1-yl)methanone] | 28000 | 900
Cc1c(F)cccc1-n1nnc(C(=O)Nc2ccc(Cl)cn2)c1N [Example 75, 5-Amino-N-(5-chloropyridin-2-yl)-1-(3-fluoro-2-methylphenyl)-1H-1,2,3-triazole-4-carboxamide] | > 33000 | 800
CCc1nn(-c2ccccc2OC)c(N)c1C(=O)Nc1ccc(C(F)(F)F)cn1 [Example 114, 5-Amino-3-ethyl-1-(2-methoxyphenyl)-N-(5-(trifluoromethyl)pyridin-2-yl)-1H-pyrazole-4-carboxamide] | > 33000 | 400
Cc1nn(-c2cccc(F)c2C)c(N)c1C(=O)Nc1ccc(Cl)cn1 [Example 137, 5-Amino-N-(5-chloro-2-pyridyl)-1-(3-fluoro-2-methylphenyl)-3-methyl-pyrazole-4-carboxamide] | > 33000 | 600
CCc1ccccc1-n1ncc(C(=O)Nc2ccc(OCC(F)(F)F)cn2)c1N [Example 140, 5-Amino-1-(2-ethylphenyl)-N-(5-(2,2,2-trifluoroethoxy)pyridin-2-yl)-1H-pyrazole-4-carboxamide] | > 33000 | 1000
CCc1nn(-c2cccc(F)c2C)c(N)c1C(=O)Nc1ccc(C(F)(F)F)cn1 [Example 143, 5-Amino-3-ethyl-1-(3-fluoro-2-methylphenyl)-N-[5-trifluoromethyl-2-pyridyl]pyrazole-4-carboxamide] | 10000 | 300
Cc1nn(-c2ccccc2F)c(N)c1C(=O)Nc1ccc(C(F)(F)F)cn1 [Example 153, 5-Amino-1-(2-fluorophenyl)-3-methyl-N-(5-(trifluoromethyl)pyridin-2-yl)-1H-pyrazole-4-carboxamide] | > 33000 | 400
Nc1c(C(=O)Nc2ccc(Cl)cn2)cnn1-c1ccccc1-c1cccnc1 [Example 196, 5-Amino-N-(5-chloropyridin-2-yl)-1-(2-(pyridin-3-yl)phenyl)-1H-pyrazole-4-carboxamide] | 17000 | 700
COc1cc(-c2ccccc2-n2ncc(C(=O)Nc3ccc(Cl)cn3)c2N)ccn1 [Example 197, 5-Amino-N-(5-chloropyridin-2-yl)-1-(2-(2-methoxypyridin-4-yl)phenyl)-1H-pyrazole-4-carboxamide] | > 33000 | 1000
Nc1c(C(=O)Nc2ccc(C(F)(F)F)cn2)cnn1-c1ccccc1O [Example 208, 5-Amino-1-(2-hydroxyphenyl)-N-(5-(trifluoromethyl)pyridin-2-yl)-1H-pyrazole-4-carboxamide] | > 33000 | 300
Cc1c(F)cccc1-n1cnc(C(=O)Nc2ccc(C(F)(F)F)cn2)c1N [Example 251, 5-Amino-1-(3-fluoro-2-methylphenyl)-N-(5-(trifluoromethyl)pyridin-2-yl)-1H-imidazole-4-carboxamide] |  | 200
COc1ccccc1-n1cnc(C(=O)Nc2ccc(Cl)cc2)c1N [Example 254, 5-Amino-N-(4-chlorophenyl)-1-(2-methoxyphenyl)-1H-imidazole-4-carboxamide] | > 33000 | 1900
